Results reported in patent publication US8946439B2, “Amide compounds, compositions and uses thereof” (Evotec AG, priority 2008, dated 2015).
Like-named read-outs stand apart in the source and are kept apart here.

Tests used:
[1] = target: T1, hP2X2/3H (Homo sapiens, UniProt P56373+Q9UBL9); experiment: Calcium uptake assay (P2X antagonist assay), P2X2/3 heteromer; type: cell-based; conditions: hP2X2/3H
T1 construct: expressed in transfected cells; host or cells: e.g. HEK293 or 1321N1
T1 sequence (Q9UBL9 1-471): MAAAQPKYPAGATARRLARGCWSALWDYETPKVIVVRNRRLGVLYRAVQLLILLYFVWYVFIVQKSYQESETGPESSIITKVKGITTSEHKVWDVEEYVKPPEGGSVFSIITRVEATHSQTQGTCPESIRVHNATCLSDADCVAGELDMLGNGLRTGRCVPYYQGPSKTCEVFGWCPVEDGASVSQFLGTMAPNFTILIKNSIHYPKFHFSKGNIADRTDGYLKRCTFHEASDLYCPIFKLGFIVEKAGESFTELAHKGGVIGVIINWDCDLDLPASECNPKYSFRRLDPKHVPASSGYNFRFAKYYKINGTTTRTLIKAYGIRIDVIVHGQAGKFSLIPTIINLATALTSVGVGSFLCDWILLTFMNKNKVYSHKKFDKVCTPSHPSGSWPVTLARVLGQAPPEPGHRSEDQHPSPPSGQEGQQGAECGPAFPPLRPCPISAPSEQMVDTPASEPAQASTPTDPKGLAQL
T1 sequence (P56373 1-397): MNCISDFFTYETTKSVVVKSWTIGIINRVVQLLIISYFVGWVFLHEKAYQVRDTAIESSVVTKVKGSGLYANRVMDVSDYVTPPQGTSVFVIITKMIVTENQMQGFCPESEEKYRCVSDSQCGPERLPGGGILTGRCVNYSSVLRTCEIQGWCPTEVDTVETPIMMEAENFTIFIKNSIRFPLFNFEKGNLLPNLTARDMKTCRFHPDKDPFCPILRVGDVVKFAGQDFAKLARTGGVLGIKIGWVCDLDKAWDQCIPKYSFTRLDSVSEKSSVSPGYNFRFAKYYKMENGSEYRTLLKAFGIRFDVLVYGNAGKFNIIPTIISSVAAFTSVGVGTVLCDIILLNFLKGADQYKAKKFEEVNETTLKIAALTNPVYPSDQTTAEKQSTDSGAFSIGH
From the text: (§1) The human P2X2/3 chimera clone is created as described by Neelands et al, and then cloned into an expression vector as above. Receptors are expressed in cells (e.g., HEK293 or 1321N1 (obtained from the ECACC)) via transient transfection using standard lipid mediated transfection, or by creation of stable transfectants for each receptor. For expression of the P2X2/3 heteromeric receptor, the P2X3 expression vector is stably transfected into a cell line already stably expressing P2X2. P2X2/3 heteromer function is isolated using pharmacological methods. Cell lines are maintained in DMEM+5% Glutamax, the appropriate level of selective antibiotic, and 10% heat inactivated FBS.
(§2) Functional activity of compounds at the P2X receptor is determined by measuring their ability to inhibit agonist-induced calcium influx. Compounds are tested for antagonist activity against the P2X2/3 chimera, the P2X3 homomer, or the P2X2/3 heteromer. At the start of each screening day, the agonist EC50 is determined. Compound % inhibition or IC50s are subsequently determined using a predetermined agonist concentration (EC50-90 depending on cell line) as a stimulus. The agonists used are αβMeATP, ATP, or other ATP analogs. Compounds may be tested at concentrations ranging from 1 pM to 10 μM.
(§3) To test for antagonist activity, cells expressing the appropriate receptor are seeded onto 96 or 384 well plates 18-24 hours prior to assay. […] Plates are incubated at 37° C. and then equilibrated at room temperature. Antagonism of agonist-induced calcium influx is measured using a fluorescent imaging plate reader (e.g. FLIPR^TETRA, Molecular Devices, Sunnyvale, Calif.). The assay comprises two stages: a pre-treatment phase followed by a treatment phase. Compounds may be tested as follows: For the pre-treatment phase, 50 μL of 3× concentration of test compound in HBSS is added to cells containing […], of dye loading media to achieve a final concentration of 1× test compound. For the treatment phase, at a set interval after pre-treatment (1-30 minutes), 50 μL of 1× test compound plus 4× agonist solution is added, resulting in a final concentration of 1× compound and 1× agonist. […] Responses are measured as (peak fluorescence after agonist addition) minus (baseline fluorescence prior to treatment). Percent inhibition is calculated as follows:
(§4) [formula] IC50 values are determined by analyzing dose response data in a 4 parameter logistic fit using GraphPad Prizm.

[2] = target: T2, hP2X3 (Homo sapiens, UniProt P56373); experiment: Calcium uptake assay (P2X antagonist assay), P2X3 homomer; type: cell-based; conditions: hP2X3
T2 construct: expressed in transfected cells; host or cells: e.g. HEK293 or 1321N1
T2 sequence (P56373 1-397): T1 sequence (P56373 1-397)
From the text: as §1, §2, §3, §4

[3] = Ca influx (calcium uptake assay), read-out: IC50 hP2X2/3H
[4] = Ca influx (calcium uptake assay), read-out: IC50 hP2X3
[5] = calcium uptake assay, read-out: IC50 hP2X2/3H (nM), Ca Influx
[6] = calcium uptake assay, read-out: IC50 hP2X3 (nM), Ca Influx

Row | Compound | IC50 [1, 3] | IC50 [2, 4] | IC50 [1, 5] | IC50 [2, 6]
1 | Cc1ccc(-c2cc(C(=O)N[C@H](C)c3ccc(C(F)(F)F)nc3)cc(C(=O)N(C)CC(C)C)c2)cc1 [Compound 10, (R)—N3-Isobutyl-N3,4′-dimethyl-N5-(1-(6-(trifluoromethyl)pyridin-3-yl)ethyl)biphenyl-3,5-dicarboxamide] |  |  | 100 to 500 nM | 100 to 500 nM
2 | Cc1ccc(-c2cc(C(=O)N[C@H](C)c3ccc(C(F)(F)F)nc3)cc(C(=O)N3CC(O)C3)c2)cc1 [Compound 85] |  |  | < 100 nM | < 100 nM
3 | Cc1ccc(-c2cc(C(=O)N[C@H](C)c3cnc(C)nc3)cc(C(=O)N3CC[C@@H](O)C3)c2)cc1 [Compound 157] |  |  | < 100 nM | < 100 nM
4 | CCN(CC)C(=O)c1cc(C(=O)NCc2cnc(C)nc2)cc(-c2ccc(C)cc2)c1 [Compound 170] |  |  | 100 to 500 nM | < 100 nM
5 | Cc1ccc(-c2cc(C(=O)N[C@H](C)c3cnc(C)c(Cl)c3)cc(C(=O)N3CCCC3)c2)cc1 [Compound 104] |  |  | 100 to 500 nM | < 100 nM
6 | Cc1ccc(-c2cc(C(=O)NCc3ccc(C)nc3)cc(C(=O)N3CCNC(C)C3)c2)cc1 (stereo not shown) [Compound 126] |  |  | 100 to 500 nM | < 100 nM
7 | Cc1ccc(-c2cc(C(=O)NCc3ccc(C)c(S(C)(=O)=O)c3)cc(C(=O)N3CCCC3)c2)cc1 [Compound 71] |  |  | < 100 nM | < 100 nM
8 | Cc1ccc(-c2cc(C(=O)NCc3cnc(C)nc3)cc(C(=O)N3CCN(C)CC3)c2)cc1 [Compound 25] |  |  | 100 to 500 nM | < 100 nM
9 | COc1ccc(CNC(=O)c2cc(-c3ccc(C)cc3)cc(S(C)(=O)=O)c2)cn1 [Compound 144] |  |  | < 100 nM | 100 to 500 nM
10 | Cc1ccc(CNC(=O)c2cc(-c3ccc(Cl)cc3)cc(S(C)(=O)=O)c2)cn1 [Compound 138] |  |  | 100 to 500 nM | 100 to 500 nM
11 | Cc1ccc(-c2cc(C(=O)NCc3ccc(C)nc3)cc(S(C)(=O)=O)c2)nc1 [Compound 113, 3-(5-Methylpyridin-2-yl)-N-((6-methylpyridin-3-yl)methyl)-5-(methylsulfonyl)benzamide] |  |  | 100 to 500 nM | < 100 nM
12 | Cc1ccc(-c2cc(C(=O)NCc3ccc4cccnc4c3)cc(C(=O)N3CCCC3)c2)cc1 [Compound 49, 4′-Methyl-5-(pyrrolidine-1-carbonyl)-N-(quinolin-7-ylmethyl)biphenyl-3-carboxamide] |  |  | 100 to 500 nM | 100 to 500 nM
13 | Cc1ccc(-c2cc(C(=O)NCc3cnc(C)nc3)cc(C(=O)N(C)CC(C)C)c2)cc1 [Compound 12, N3-Isobutyl-N3,4′-dimethyl-N5-((2-methylpyrimidin-5-yl)methyl)biphenyl-3,5-dicarboxamide] |  |  | < 100 nM | < 100 nM
14 | Cc1ccc(-c2cc(C(=O)N[C@H](CO)c3ccc(C(F)(F)F)nc3)cc(C(=O)N3CCCC3)c2)cc1 [Compound 92] |  |  | < 100 nM | < 100 nM
15 | Cc1ccc(-c2cc(C(=O)N[C@H](C)c3cnc(C)nc3)cc(C(=O)N3CC(O)C3)c2)cc1 [Compound 76] |  |  | < 100 nM | < 100 nM
16 | Cc1ccc(-c2cc(C(=O)N[C@H](C)c3ccc(C(F)(F)F)nc3)cc(C(=O)N3CC[C@@H](O)C3)c2)cc1 [Compound 158] |  |  | < 100 nM | < 100 nM
17 | Cc1ncc(CNC(=O)c2cc(C(=O)N3CCCC3)cc(-c3ccc(F)cn3)c2)cn1 [Compound 99] |  |  | > 1000 nM | > 1000 nM
18 | Cc1ccc(-c2cc(C(=O)NCc3ccc(C)nc3)cc(C(=O)N3CCC(N4CCOCC4)C3)c2)cc1 (stereo not shown) [Compound 86, 4′-Methyl-N-((6-methylpyridin-3-yl)methyl)-5-(3-morpholinopyrrolidine-1-carbonyl)biphenyl-3-carboxamide] |  |  | 100 to 500 nM | 100 to 500 nM
19 | Cc1ccc(-c2cc(C(=O)NCc3ccc(C)nc3)cc(C(=O)N3CCN(c4nccs4)CC3)c2)cc1 [Compound 127, 4′-Methyl-N-((6-methylpyridin-3-yl)methyl)-5-(4-(thiazol-2-yl)piperazine-1-carbonyl)biphenyl-3-carboxamide] |  |  | 100 to 500 nM | < 100 nM

Now from value to compound:

Row | IC50 [1, 3] | IC50 [2, 4] | IC50 [1, 5] | IC50 [2, 6] | Compound
20 | 100 to 500 nM | < 100 nM |  |  | Cc1ccc(-c2cc(Oc3ncccn3)cc(C(=O)N[C@H](C)c3cnc(C)nc3)c2)c(C#N)c1 [Compound 247]
21 | 100 to 500 nM | < 100 nM |  |  | Cc1ccc(-c2cc(Oc3ncccn3)cc(C(=O)N[C@H](C)c3ccc(C)nc3)c2)nc1 [Compound 272]
22 | < 100 nM | < 100 nM |  |  | Cc1ccc(-c2cc(C(=O)NCc3ccc(C)[n+]([O-])c3)cc(S(C)(=O)=O)c2)cc1 [Compound 256, 2-Methyl-5-((4′-methyl-5-(methylsulfonyl)biphenyl-3-ylcarboxamido)methyl)pyridine 1-oxide]
23 | < 100 nM | 100 to 500 nM |  |  | Cc1ccc(-c2cc(C(=O)N[C@H](C)c3ccc(C)nc3)cc(C(=O)c3ccccc3)c2)cc1 [Compound 229, (R)-5-Benzoyl-4′-methyl-N-(1-(6-methylpyridin-3-yl)ethyl)biphenyl-3-carboxamide]
24 | 100 to 500 nM | < 100 nM |  |  | Cc1ccc(-c2cc(C(=O)NCc3ccc4c(c3)S(=O)(=O)CC4)cc(S(C)(=O)=O)c2)nc1 [Compound 352]
25 | 100 to 500 nM | < 100 nM |  |  | COC1CCN(CC(O)c2cc(C(=O)NCc3ccc(C)nc3)cc(-c3ccc(C)cc3)c2)CC1 (stereo not shown) [Compound 389]
26 | < 100 nM | < 100 nM |  |  | Cc1ccc(-c2cc(C(=O)N[C@H](C)c3cnc(C)nc3)cc(C(O)C(C)C)c2)cc1 (stereo partly shown) [Compound 397]
27 | 100 to 500 nM | < 100 nM |  |  | Cc1ccc(-c2cc(C(=O)NCc3ccc(C)nc3)cc(C(O)CO)c2)c(C#N)c1 (stereo not shown) [Compound 297, 2′-Cyano-5-(1,2-dihydroxyethyl)-4′-methyl-N-((6-methylpyridin-3-yl)methyl)biphenyl-3-carboxamide]
28 | 100 to 500 nM | < 100 nM |  |  | Cc1ccc(-c2cc(C(=O)N[C@H](C)c3cnc(C)nc3)cc(S(C)(=O)=O)c2)nc1 [Compound 322]
29 | 100 to 500 nM | 100 to 500 nM |  |  | Cc1ccc(-c2cc(Oc3nc4ccccc4s3)cc(C(=O)N[C@H](C)c3ccc(C)nc3)c2)c(C#N)c1 [Compound 392]
30 |  |  | 100 to 500 nM | 100 to 500 nM | Cc1ccc(-c2cc(C(=O)NCc3ccc(C)nc3)cc(C(=O)N3CCCc4ccccc43)c2)cc1 [Compound 188]
31 | < 100 nM | < 100 nM |  |  | Cc1ccc(-c2cc(Oc3nc(Cl)cs3)cc(C(=O)N[C@H](C)c3ccc(C)nc3)c2)c(C#N)c1 [Compound 395]
32 | 501 to 1000 nM | < 100 nM |  |  | Cc1ncc([C@@H](C)NC(=O)c2cc(-c3ccccc3)cc(S(C)(=O)=O)c2)cn1 [Compound 370]
33 | > 1000 nM | 100 to 500 nM |  |  | Cc1ccc(-c2cc(C(=O)NC(C)c3ccc(Cl)cc3Cl)cc(S(C)(=O)=O)c2)nc1 (stereo not shown) [Compound 387]
34 | 100 to 500 nM | < 100 nM |  |  | Cc1ccc(-c2cc(C(=O)N[C@H](C)c3cnc(C)nc3)cc(C(O)CO)c2)c(C#N)c1 (stereo partly shown) [Compound 360]
35 |  |  | < 100 nM | < 100 nM | Cc1ccc(-c2cc(C(=O)NCc3ccc(C)nc3)cc(C(=O)N3CC[C@@H](O)C3)c2)nc1 [Compound 179]
